Test results published in patent US7074765B2, “Synthetic peptide analogs of Arg-Pro-Pro-Gly-Phe as selective inhibitors of thrombin and thrombin activation of protease activated receptors 1 and 4” (The Regents of the University of Michigan, priority 2003, dated 2006).

Assays:
[1] = biological target: T1, α-thrombin cleavage of recombinant extracellular fragment of human PAR1 (rPAR1EC) (Homo sapiens, UniProt P00734); experiment: Inhibition of α-thrombin-induced cleavage of rPAR1EC; assay type: biochemical; settings: 1 nM α-thrombin, 15 min, 37° C.
T1 construct: A portion of the extracellular domain of human PAR1 (Ala^26-Ser^99) (rPAR1EC) was expressed in Escherichia coli; with 1 nM of α-thrombin or 0.5 μg/mL thrombocytin (16.7 nM); His10-DDDDK (pET19b) (N); made in house; host or cells: E. coli BL21(DE3), pET19b (rPAR1EC)
Procedure: Thrombocytin is a snake venom enzyme that activates platelets by cleaving PAR1 at the thrombin cleavage site (Santos et al., FEBS Letters. 18, 3570–3577 (2000)). […] The ability of MAP4-rOicPGF to block thrombocytin cleavage of rPAR1EC was performed as follows. One μg of rPAR1EC in 0.01 mM Tris-HCL, 0.2 M NaCl, pH 8.0 was incubated at 37° C. for 15 min or 45 min with 1 nM of α-thrombin or 0.5 μg/mL thrombocytin (16.7 nM), respectively, in the absence or presence of 0.025 to 1 mM MAP4-rOicPGF. The reaction mixture was separated on SDS-PAGE and stained with Coomassie Brilliant Blue. The cleaved gel images were scanned using the software Scion Image, ScionCorp, Frederick, Md.

[2] = biological target: α-thrombin (Homo sapiens, UniProt P00734); experiment: α-thrombin hydrolysis of chromogenic substrate Sar-Pro-Arg-pNA; assay type: biochemical; settings: 1 nM α-thrombin; 0–0.5 mM peptide
Procedure: FIG. 10 examines the ability of MAP4-TH146 (β-Ala-Lys-2Lys-4(D-Arg-Oic-Pro-Gly-Phe)) to block thrombin or thrombocytin-induced proteolysis of recombinant extracellular fragment of human PAR1 (rPAR1EC). In the upper Panels, 1 μg of rPAR1EC in 10 mM Tris-HCI, 200 mM NaCl, pH 8.0 was incubated at 37° C. for 15 min or 45 min with 1 nM α-thrombin or 0.5 μg/ml (16.7 nM) thrombocytin, respectively, in the absence or presence of increasing concentrations of MAP4-TH146 (0.05 to 1.0 mM)). In the middle Panel, the ability of α-thrombin (1 nM) to hydrolyze the chromogenic substrate Sar-Pro-Arg-pNA in the presence or absence of 0–0.5 mM MAP4-TH146 was determined. In the bottom Panel, the ability of thrombocytin (16.7 nM) to hydrolyze 1 mM H-D-Phe-Pip-Arg-paranitroanilide (S2238) in the presence or absence of 0–1.0 mM MAP4-TH146 was determined. […] Alternatively, in the bottom Panel, MAP4-TH146 inhibits thrombocytin proteolysis of rPAR1EC at concentrations below that necessary to block the proteolytic activity of the enzyme.

[3] = system: PC3 cells; experiment: α-thrombin-induced intracellular calcium mobilization in PC3 cells; assay type: cell-based; settings: 2 nM α-thrombin
Procedure: FIG. 13 examines the influence of MAP4-TH146 on thrombin-induced calcium mobilization in two prostate cancer cell lines that functionally express PAR 1. In Panel A, the influence of MAP4-TH146 on 2 nM α-thrombin-induced intracellular calcium mobilization in VCaP cells. Calcium flux is abolished by […]. At 6.25 μM MAP4-TH146, there is full recovery of thrombin-induced calcium flux. In Panel B, the influence of MAP4-TH146 on 2 nM α-thrombin-induced intracellular calcium mobilization in PC3 cells. Calcium flux is abolished by 200 μM MAP4-TH146. At 1.56 μM MAP4-TH146, calcium flux recovers.

[4] = system: normal human lung fibroblasts (NHLF); experiment: α-thrombin-induced calcium mobilization in fibroblasts; assay type: cell-based
Procedure: The second assay developed to assess peptides from the combinatorial libraries uses inhibition of α-thrombin-induced calcium mobilization in fibroblasts. Normal human lung fibroblasts (NHLF) were purchased from Clonetics, San Diego, Calif., an affiliate of Bio-Wittaker, Walkersville, Md. The cytoplasmic free Ca^2+ concentration ([Ca^2+]i) was measured using the fluorescent Ca^2+ indicator fura-2 (Molecular Probes, Inc., Eugene, Oreg.). Suspension of fibroblasts in Hepes-Tyrode's buffer were loaded with fura-2 by incubation at 37° C. with 2 μM fura-2/acetoxymethyl ester for 45 minutes according to the method of Rasmussen et al., J. Biol. Chem. 268, 14322 (1993). The labeled fibroblasts were separated from excess probe by washing by centrifugation at 1000 rpm (180×g). Aliquots of the labeled fibroblasts were transferred into a quartz cuvette with a magnetic stirrer, which was then placed in a thermostatically controlled chamber at 37° C. in a fluorescence spectrophotometer (Perkin-Elmer LS50B spectrofluorometer, Chicago, Ill.). Reagents, test peptide, and α-thrombin (0.25–2 nM), were sequentially added directly to the cuvette. The excitation wavelengths varied between 340 and 380 nm. Fluorescence was measured by recording emitted light at 510 nm as reported by Fisher et al., Mol Pharm. 35, 195 (1989). The minimum emission was determined on a solubilized fibroblast sample in the presence of 10 mM EDTA; maximum emission was determined on the same sample with 10 mM Ca^2+ added. The intrafibroblast free Ca^2+ concentration was calculated by the method of Grykiewicz et al., J. Biol. Chem. 260, 3440 (1985). […] The KD for fura-2 was assumed to be 224 nM. Rmax and Rmin are the maximum and minimum fluorescence ratios measured at the end of the experiment, respectively; Sf2 and Sb2 are the fluorescence values at 380 nm in the absence and presence of saturating [Ca^2+], respectively. The reaction was monitored for 3–5 minutes.

## β-Ala-Lys-2Lys-4(D-Arg-Oic-Pro-Gly-Phe) [MAP4-rOicPGF]
[1]
  effect on α-thrombin cleavage of rPAR1EC: inhibits thrombin and thrombocytin cleavage of rPAR1EC
[2]
  effect on α-thrombin hydrolysis of Sar-Pro-Arg-pNA: directly blocking α-thrombin's proteolytic activity
[3]; 1.56 μM peptide
  effect on thrombin-induced calcium flux: recovers
[3]; 200 μM peptide
  effect on thrombin-induced calcium flux: abolished
[4]; 0.25 nM α-thrombin
  concentrations that blocked α-thrombin-induced Ca^2+ mobilization in fibroblasts: ≥ 3.1 µM
[4]; 0.2 mM peptide, 2 nM alpha thrombin
  inhibition of calcium mobilization: 98%
[4]; 0.0016 (unit not given) peptide, 2 nM alpha thrombin
  effect on alpha thrombin-induced calcium mobilization: full recovery
